# What was measured:
# [1] = Metabolic stability in mouse microsomes assessed as intrinsic clearance; assay type: ADME, Microsome
# [2] = Metabolic stability in human microsomes assessed as intrinsic clearance; assay type: ADME, Microsome
# [3] = Metabolic stability in human microsomes assessed as half life; assay type: ADME, Microsome
# [4] = Metabolic stability in mouse microsomes assessed as half life; assay type: ADME, Microsome
# [5] = system: Mycobacterium tuberculosis; experiment: Antimycobacterial activity against Mycobacterium tuberculosis assessed as bacterial growth inhibition; assay type: functional
# Rattus norvegicus = species: Rattus norvegicus; experiment: Anticonvulsant activity in rat; assay type: functional
# Mus musculus = species: Mus musculus; experiment: Anticonvulsant activity in mouse; assay type: functional
# [6] = Toxicity in mouse; assay type: organism-based; conditions: in vivo
# [7] = system: Mycobacterium tuberculosis; experiment: Antimycobacterial activity against Mycobacterium tuberculosis H37Rv strain assessed as bacterial growth inhibition incubated for 48 hrs by Microplate amar blue assay; assay type: functional
# Enterococcus faecium = experiment: Antibacterial activity against Linezolid resistant Enterococcus faecium assessed as bacterial growth inhibition incubated for 24 hrs; assay type: functional
# [8] = AUClast in Sprague-Dawley rat at 15 mg/kg, iv by HPLCLC-MS/MS analysis; assay type: ADME, organism-based; set-up: dose 15 mg/kg, route iv; conditions: in vivo
# Staphylococcus aureus [9] = experiment: Antibacterial activity against Staphylococcus aureus assessed as bacterial growth inhibition incubated for 24 hrs; assay type: functional
# Enterococcus faecalis = experiment: Antibacterial activity against Linezolid resistant Enterococcus faecalis assessed as bacterial growth inhibition incubated for 24 hrs; assay type: functional
# Metaphire posthuma [10] = experiment: Anti-helmintic activity at Metaphire posthuma assessed as time of survival; assay type: functional
# Metaphire posthuma [11] = experiment: Anti-helmintic activity at Metaphire posthuma assessed as paralysis induction time; assay type: functional
# [12] = system: Mycolicibacterium fortuitum; experiment: Antibacterial activity against Mycobacterium fortuitum assessed as bacterial growth inhibition; assay type: functional
# Mycobacterium kansasii = experiment: Antibacterial activity against Mycobacterium kansasii assessed as bacterial growth inhibition; assay type: functional
# Mycobacteroides chelonae = experiment: Antibacterial activity against Mycobacteroides chelonae assessed as bacterial growth inhibition; assay type: functional
# [13] = target: T1, Acyl-CoA (8-3)-desaturase (Homo sapiens, UniProt O60427); experiment: Inhibition of human Delta 5 desaturase (unknown origin) expressed in human HepG2 cells; assay type: cell-based
# Target sequence in this assay (O60427 whole entry): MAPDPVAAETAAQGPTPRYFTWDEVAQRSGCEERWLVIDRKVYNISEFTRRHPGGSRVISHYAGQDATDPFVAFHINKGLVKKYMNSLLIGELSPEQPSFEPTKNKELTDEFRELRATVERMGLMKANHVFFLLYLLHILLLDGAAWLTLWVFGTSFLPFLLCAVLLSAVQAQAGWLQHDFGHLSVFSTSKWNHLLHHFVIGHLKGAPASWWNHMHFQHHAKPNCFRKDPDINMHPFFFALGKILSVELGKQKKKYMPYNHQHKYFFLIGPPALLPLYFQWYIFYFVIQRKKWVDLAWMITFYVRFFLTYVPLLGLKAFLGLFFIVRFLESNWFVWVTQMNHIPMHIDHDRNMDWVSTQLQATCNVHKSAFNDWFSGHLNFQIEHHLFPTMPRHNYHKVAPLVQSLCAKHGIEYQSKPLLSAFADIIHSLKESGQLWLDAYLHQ
# [14] = target: T1, Acyl-CoA (8-3)-desaturase; experiment: In vivo inhibition of human Delta 5 desaturase in atherosclerosis mouse model at 3 mg/kg, po relative to control; assay type: organism-based
# Target sequence in this assay (O60427 whole entry, looked up): as the sequence (O60427 whole entry) above
# [15] = target: T1, Acyl-CoA (8-3)-desaturase; experiment: In vivo inhibition of human Delta 5 desaturase in C57BL/6J mouse at 3 mg/kg, po relative to control; assay type: organism-based
# Target sequence in this assay (O60427 whole entry, looked up): as the sequence (O60427 whole entry) above
# [16] = target: Aldo-keto reductase family 1 member B1 (Homo sapiens, UniProt P15121); experiment: Inhibition of […] (unknown origin)
# Clostridioides difficile [17] = experiment: Antibacterial activity against Clostridium difficile ATCC 43255 strain assessed as bacterial growth inhibition incubated for 48 hrs by agar dilution method; assay type: functional
# Clostridioides difficile [18] = experiment: In vivo Antibacterial activity against Clostridium difficile infected in hamster assessed as survival at 50 mg/kg, sc relative to control; assay type: functional
# Clostridioides difficile [19] = experiment: Antibacterial activity against Clostridium difficile 2004118 strain assessed as bacterial growth inhibition incubated for 48 hrs by agar dilution method; assay type: functional
# Clostridioides difficile [20] = experiment: Antibacterial activity against Clostridium difficile NCTC 11223 strain assessed as bacterial growth inhibition incubated for 48 hrs by agar dilution method; assay type: functional
# Clostridioides difficile [21] = experiment: Antibacterial activity against Clostridium difficile ATCC 43596 strain assessed as bacterial growth inhibition incubated for 48 hrs by agar dilution method; assay type: functional
# Clostridioides difficile [22] = experiment: Antibacterial activity against Clostridium difficile NAP1/027/BI-type strain 2009155 assessed as bacterial growth inhibition incubated for 48 hrs by agar dilution method; assay type: functional
# HeLa = experiment: Anticancer activity against human HeLa cells assessed as cell growth inhibition incubated for 72 hrs by MTT assay; assay type: functional, cell-based
# MCF7 = experiment: Anticancer activity against human MCF7 cells assessed as cell growth inhibition incubated for 72 hrs by MTT assay; assay type: functional, cell-based; conditions: MCF7, 72 h
# [23] = system: Mycobacterium tuberculosis; experiment: Antimycobacterial activity against Mycobacterium tuberculosis H37Rv strain assessed as bacterial growth inhibition by Microplate amar blue assay; assay type: functional
# Carbonic anhydrase 1 = Carbonic anhydrase 1 (Homo sapiens, UniProt P00915); experiment: Inhibition of human CA1
# Alpha glucosidase = Alpha glucosidase (Homo sapiens, UniProt O43451+P10253+P14410+Q2M2H8); experiment: Inhibition of human alpha glucosidase; assay type: protein assay
# Acetylcholinesterase = Acetylcholinesterase (Homo sapiens, UniProt P22303); experiment: Inhibition of human AchE
# Carbonic anhydrase 2 = Carbonic anhydrase 2 (Homo sapiens, UniProt P00918); experiment: Inhibition of human CA2
# [24] = system: Mycobacterium tuberculosis; experiment: Antimycobacterial activity against Mycobacterium tuberculosis H37Rv strain assessed as bacterial growth inhibition incubated for 18 to 24 hrs; assay type: functional; conditions: time 18-24 hrs
# Kallikrein-6 = Kallikrein-6 (Homo sapiens, UniProt Q92876); experiment: Inhibition of KLK6 (unknown origin)
# HepG2 [25] = experiment: Anticancer activity against human HepG2 assessed as IL-6 induced luciferase activity at 50 uM relative to control; assay type: functional
# HepG2 [26] = experiment: Anticancer activity against human HepG2 assessed as IL-6 induced luciferase activity; assay type: functional, cell-based
# TF-1 = experiment: Anticancer activity against human TF-1 cells assessed as cell growth inhibition; assay type: functional, cell-based
# MGC-803 = experiment: Anticancer activity against human MGC-803 cells assessed as cell growth inhibition incubated for 48 hrs by MTT assay; assay type: functional, cell-based; conditions: MGC-803, 48 h
# L02 [27] = experiment: Cytotoxicity against human L02 cells assessed as cell growth inhibition incubated for 48 hrs by MTT assay; assay type: functional, cell-based; conditions: L02, 48 h
# CNE-2 = experiment: Anticancer activity against human CNE-2 cells assessed as cell growth inhibition incubated for 48 hrs by MTT assay; assay type: functional, cell-based; conditions: CNE-2, 48 h
# SK-OV-3 = experiment: Anticancer activity against human SK-OV-3 cells assessed as cell growth inhibition incubated for 48 hrs by MTT assay; assay type: functional, cell-based; conditions: SK-OV-3, 48 h
# NCI-H460 = experiment: Anticancer activity against human NCI-H460 cells assessed as cell growth inhibition incubated for 48 hrs by MTT assay; assay type: functional, cell-based; conditions: NCI-H460, 48 h
# Staphylococcus aureus [28] = experiment: Antibacterial activity against methicillin sensitive Staphylococcus aureus assessed as bacterial growth inhibition incubated for 18 hrs; assay type: functional
# Staphylococcus aureus [29] = experiment: Antibacterial activity against methicillin resistant Staphylococcus aureus assessed as bacterial growth inhibition incubated for 18 hrs; assay type: functional
# L02 [30] = experiment: Anticancer activity against human L02 cells assessed as cell growth inhibition incubated for 48 hrs by MTT assay; assay type: functional, cell-based; conditions: L02, 48 h
# HEK293 = experiment: Anticancer activity against HEK293 cells assessed as cell growth inhibition incubated for 48 hrs by MTT assay; assay type: functional, cell-based; conditions: Homo sapiens, HEK293, 48 h
# [31] = Inhibition of human LTC4
# [32] = Inhibition of human LTB4
# Acetylcholinesterase, sequence (P22303 whole entry): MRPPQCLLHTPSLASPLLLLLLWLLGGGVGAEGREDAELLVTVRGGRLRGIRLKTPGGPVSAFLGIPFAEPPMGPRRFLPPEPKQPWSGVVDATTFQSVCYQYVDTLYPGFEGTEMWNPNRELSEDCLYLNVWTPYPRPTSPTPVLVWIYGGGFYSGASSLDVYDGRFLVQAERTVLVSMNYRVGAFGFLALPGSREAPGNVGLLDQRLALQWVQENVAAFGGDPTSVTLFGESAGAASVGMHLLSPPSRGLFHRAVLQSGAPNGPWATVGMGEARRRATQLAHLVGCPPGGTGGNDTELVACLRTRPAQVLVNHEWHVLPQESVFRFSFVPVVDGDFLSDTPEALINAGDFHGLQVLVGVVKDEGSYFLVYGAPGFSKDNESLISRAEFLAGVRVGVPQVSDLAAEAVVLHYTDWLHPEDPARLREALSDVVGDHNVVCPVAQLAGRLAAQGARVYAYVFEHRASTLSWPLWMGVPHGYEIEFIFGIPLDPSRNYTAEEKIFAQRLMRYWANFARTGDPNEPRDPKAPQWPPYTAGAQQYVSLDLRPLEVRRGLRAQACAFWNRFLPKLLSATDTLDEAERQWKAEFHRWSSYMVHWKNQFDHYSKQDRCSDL
# Carbonic anhydrase 1, sequence (P00915 whole entry): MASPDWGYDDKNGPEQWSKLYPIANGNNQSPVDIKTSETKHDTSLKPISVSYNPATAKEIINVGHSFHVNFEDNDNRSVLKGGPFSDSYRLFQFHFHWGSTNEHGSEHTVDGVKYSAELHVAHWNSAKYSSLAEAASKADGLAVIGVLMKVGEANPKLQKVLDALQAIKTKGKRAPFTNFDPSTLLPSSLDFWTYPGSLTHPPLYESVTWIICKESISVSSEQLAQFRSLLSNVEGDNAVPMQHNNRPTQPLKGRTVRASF
smiles,measurement,setting,value
CC[C@H](NC(=O)[C@H]1CN(c2ccc(C(=N)N)cc2)C(=O)O1)c1cccc2ccccc12,CLH,[1],2.4 mL/min/g
same,CLH,[2],3.1 mL/min/g
same,half-life,[3],> 3 h
same,half-life,[4],> 3 h
CC(=O)NC[C@H]1CN(c2ccc(-c3ccc(-c4csc(N)n4)cc3)c(F)c2)C(=O)O1,MIC90,[5],0.9 µM
O=C(NCC(=O)N1CCN(c2ccc(N3C[C@H](Cn4ccnn4)OC3=O)cc2F)CC1)c1cccs1,ED50,Rattus norvegicus,34.5 mg/kg
same,ED50,Mus musculus,90 mg/kg
same,TD50,[6],> 500 mg/kg
O=C1O[C@@H](Cn2ccnn2)CN1c1ccc(N2CCOCC2)c(F)c1,MIC90,[7],1.3 µM
O=C(CO)N1CCN(c2ccc(-c3ccc(N4C[C@H](Cn5ccnn5)OC4=O)cc3F)cn2)C=N1,MIC,Enterococcus faecium,< 2 µg/mL
same,AUClast,[8],85 mg/h/L
same,MIC,Staphylococcus aureus [9],< 2 µg/mL
same,MIC,Enterococcus faecalis,< 2 µg/mL
O=C(OC[C@H]1CN(c2ccc(N3CCOCC3)nc2)C(=O)O1)C1CCCCC1,Survival,Metaphire posthuma [10],8.1 min
same,Time,Metaphire posthuma [11],3.6 min
CC(=O)NC[C@H]1CN(c2ccc(N3CCN(c4ccc5nccn5n4)CC3)c(F)c2)C(=O)O1,MIC90,[12],8 µM
same,MIC90,[5],1.1 µM
same,MIC90,Mycobacterium kansasii,1 µM
same,MIC90,Mycobacteroides chelonae,8 µM
O=C(COP(=O)(O)O)N1CCN(c2ccc(-c3ccc(N4C[C@H](Cn5ccnn5)OC4=O)cc3F)cn2)C=N1,AUClast,[8],5.08 mg/h/L
C[C@@H]1[C@@H](c2ccc(F)cc2)OC(=O)N1c1cc(C#N)cc(C#N)c1,IC50,[13],0.0015 µM
same,inhibition,[14],66%
same,inhibition,[15],74%
CCOc1nc(-c2ccc(N3C[C@H](CNC(C)=O)OC3=O)cc2F)cs1,MIC90,[5],2.6 µM
COc1ccc(C2CC3(CN(CC(=O)O)C(=O)O3)c3cc(Br)ccc3O2)cc1 (centres undefined),IC50,[16],0.65 µM
COc1cc(COc2ccccc2C2(C)CN(CC(=O)O)C(=O)O2)cc(OC)c1OC (centres undefined),IC50,[16],3.19 µM
CC(=O)NC[C@H]1CN(c2ccc(-c3cnc(-n4cncn4)nc3)c(F)c2)C(=O)O1,MIC90,Clostridioides difficile [17],0.25 µg/mL
same,survival at 50 mg/kg,Clostridioides difficile [18],100%
same,MIC90,Clostridioides difficile [19],0.25 µg/mL
same,MIC90,Clostridioides difficile [20],0.25 µg/mL
same,MIC90,Clostridioides difficile [21],0.25 µg/mL
same,MIC90,Clostridioides difficile [22],0.25 µg/mL
CCN(CC)C(=O)/C=C1/OC(=O)N(Cc2ccccc2)C1(C)C,IC50,HeLa,17.7 µM
same,IC50,MCF7,31.1 µM
CC(C)C[C@@H](NC(=O)OC1c2ccccc2-c2ccccc21)C(=O)N[C@@H](Cc1ccccc1)[C@H]1CN(c2ccc(N3CCOCC3)c(F)c2)C(=O)O1,MIC90,[5],2.6 µM
CN[C@H](CC(C)C)C(=O)N[C@H]1C(=O)N[C@@H](CC(N)=O)C(=O)N[C@H]2C(=O)N[C@H]3C(=O)N[C@H](C(=O)N[C@H](C(=O)O)c4cc(O)cc(O)c4-c4cc3ccc4O)[C@H](O)c3ccc(c(Cl)c3)Oc3cc2cc(c3O[C@@H]2O[C@H](CO)[C@@H](O)[C@H](O)[C@H]2O[C@H]2C[C@](C)(N)[C@H](O)[C@H](C)O2)Oc2ccc(cc2Cl)[C@H]1O [VANCOMYCIN],survival at 50 mg/kg,Clostridioides difficile [18],50%
O=C1CC2CN(c3ccc(N4C[C@H](Cn5ccnn5)OC4=O)cc3F)CC2C1 (some centres undefined),MIC90,[23],1.2 µM
CC1(C)O[C@@H]2[C@@H](O)[C@H]3NC(=O)O[C@H]3C[C@@H]2O1,IC50,Carbonic anhydrase 1,45.6 µM
same,IC50,Alpha glucosidase,30.5 µM
same,IC50,Acetylcholinesterase,58.7 µM
same,IC50,Carbonic anhydrase 2,24.8 µM
O=C(NCC(=O)N1CCN(c2ccc(N3C[C@H](Cn4ccnn4)OC3=O)cc2F)CC1)c1ccc([N+](=O)[O-])o1,MIC90,[24],0.9 µM
COc1ccccc1-c1ccc([C@H](C)Nc2cncc(N3C(=O)OC[C@@H]3C(C)C)n2)cc1,IC50,Kallikrein-6,0.00251 µM
C=C(CCCCC)[C@@H](O)[C@H](C)C(=O)N1C(=O)OC[C@@H]1C(C)C,inhibition at 50 µM,HepG2 [25],90%
same,IC50,HepG2 [26],5.9 µM
same,IC50,TF-1,7.5 µM
CC(C)c1ccc2c(c1)CCC1[C@](C)(C(=O)OCC3CN(c4ccc(F)cc4)C(=O)O3)CCC[C@]21C (some centres undefined),IC50,MGC-803,3.82 µM
same,IC50,L02 [27],> 100 µM
same,IC50,CNE-2,3.82 µM
same,IC50,SK-OV-3,3.82 µM
same,IC50,NCI-H460,3.82 µM
Cc1ncc([N+](=O)[O-])n1CCO [METRONIDAZOLE],survival at 50 mg/kg,Clostridioides difficile [18],0%
CC(=O)NC[C@H]1CN(c2ccc(N3C[C@H]4C[C@@H](O)C[C@H]4C3)c(F)c2)C(=O)O1,MIC90,[23],0.6 µM
CC(=O)NC[C@H]1CN(c2ccc(-n3cc(-c4ccccn4)cn3)c(F)c2)C(=O)O1,MIC,Staphylococcus aureus [28],1 µg/mL
same,MIC,Staphylococcus aureus [29],0.5 µg/mL
same,IC50,L02 [30],50 µM
same,IC50,HEK293,> 25 µM
CCCCCCC(=O)N(O)C[C@H]1CN(c2ccc(N3CCOCC3)c(F)c2)C(=O)O1,IC50,[31],0.9 µM
same,IC50,[32],0.7 µM

# — ChEMBL document CHEMBL5257153, “Oxazolidinones as versatile scaffolds in medicinal chemistry” (RSC Med Chem, 2023)
